Consider one compound from patent US8492374B2, “Azaazulene compounds” (Industrial Technology Research Institute, priority 2009, dated 2013).

One experiment deals with T1, KDR kinase (Homo sapiens, UniProt P35968).
T1 construct: human VEGFR-2 (Val789-Val1356); GST (N); purchased Cell Signaling Technology HTScan VEGFR-2 Kinase Assay Kit; host or cells: baculovirus expression system
In words: KDR kinase DELFIA assay (HTScan VEGFR-2 Kinase Assay Kit). It is filed as biochemical. Particulars: 20 uM ATP. As for the experimental part: Azaazulene Compounds of this invention were treated for their efficacy in inhibiting activities of FLT-3, c-KIT and KDR kinases by biochemical DELFIA (Dissociation Enhanced Lanthanide FIA) assays according to the procedure described below. The assays were conducted by, Division of Cell Engineering, Biomedical Engineering Research Laboratories, Industrial Technology Research Institute, Bldg. 53, 195, sec. 4, Chung Hsing Rd. Chutung, Hsinchu, Taiwan 310, R.O.C.
The KDR assay was conducted following the protocol described in Protocol for HTScan™ VEGFR-2 Kinase Assay Kit (Cell Signaling Technology™).

For the next experiment, the target named is T2, FLT-3 kinase (Homo sapiens, UniProt P36888).
T2 construct: human FLT-3 (Arg571-Ser993); GST (N); purchased Cell Signaling Technology HTScan FLT-3 Kinase Assay Kit; host or cells: baculovirus expression system
T2 sequence (P36888 571-993): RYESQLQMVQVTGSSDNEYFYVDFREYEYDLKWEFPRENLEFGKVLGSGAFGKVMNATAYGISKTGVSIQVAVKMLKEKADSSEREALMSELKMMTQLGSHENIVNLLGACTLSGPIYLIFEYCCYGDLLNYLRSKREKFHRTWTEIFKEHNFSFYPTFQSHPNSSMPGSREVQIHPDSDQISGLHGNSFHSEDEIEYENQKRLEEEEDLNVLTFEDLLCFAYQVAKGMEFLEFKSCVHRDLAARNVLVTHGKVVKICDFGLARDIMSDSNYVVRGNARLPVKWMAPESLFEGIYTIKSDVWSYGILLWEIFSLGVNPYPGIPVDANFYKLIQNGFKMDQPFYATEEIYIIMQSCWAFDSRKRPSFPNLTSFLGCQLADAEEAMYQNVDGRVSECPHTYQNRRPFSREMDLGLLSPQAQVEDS
In words: FLT-3 kinase DELFIA assay (HTScan FLT-3 Kinase Assay Kit). In kind it is biochemical. Particulars: 20 uM ATP.

Another experiment addresses LYN B (Homo sapiens, UniProt P07948). In words: Kinase panel assay (SelectScreen Kinase Profiling, Invitrogen). It is filed as biochemical. Particulars: 1000 nM of compound B26. As for the experimental part:
(§1) The kinase panel assay of compound B26 of this invention was performed by SelectScreen® Kinase Profiling Services of Invitrogen. The inhibitory effects of 1000 nM of compound B26 against various kinases whom shown >50% inhibitory effects are summarized in following Table 5.

In another experiment the target is FLT3 (Homo sapiens, UniProt P36888). The experiment is described as above. It is filed as biochemical. The following applies: 1000 nM of compound B26. On the procedure:
as §1

The next experiment addresses RET (Homo sapiens, UniProt P07949). The experiment is described as above. It is filed as biochemical. Particulars: 1000 nM of compound B26. As for the experimental part:
as §1

Another experiment addresses RET Y791F (Homo sapiens, UniProt P07949, Y791F). The description is as above. It is filed as biochemical. Particulars: 1000 nM of compound B26. On the procedure: as §1
Another experiment has as its target SRC N1 (Homo sapiens, UniProt P12931). The experiment is described as above. In kind it is biochemical. Particulars: 1000 nM of compound B26. As for the experimental part: as §1
Another experiment has as its target FGFR3 (Homo sapiens, UniProt P22607). The experiment is described as above. It is filed as biochemical. The following applies: 1000 nM of compound B26. As for the experimental part:
as §1

The target of another experiment is STK4 (MST1) (Homo sapiens, UniProt Q13043). Described as above. In kind it is biochemical. The following applies: 1000 nM of compound B26. On the procedure:
as §1

A further experiment has as its target RET V804L (Homo sapiens, UniProt P07949, V804L). Described as above. It is filed as biochemical. Particulars: 1000 nM of compound B26. On the procedure: as §1
The next experiment deals with KIT (Homo sapiens, UniProt P10721). The description is as above. In kind it is biochemical. Particulars: 1000 nM of compound B26. On the procedure: as §1
The target of a further experiment is FGFR3 K650E (Homo sapiens, UniProt P22607, K650E). The experiment is described as above. In kind it is biochemical. Particulars: 1000 nM of compound B26. On the procedure:
as §1

For a further experiment, the target named is YES1 (Homo sapiens, UniProt P07947). The experiment is described as above. In kind it is biochemical. Particulars: 1000 nM of compound B26. On the procedure: as §1
The target in a further experiment is LYN A (Homo sapiens, UniProt P07948). Described as above. In kind it is biochemical. The following applies: 1000 nM of compound B26. On the procedure:
as §1

Experiment [1] has as its system MV4-11 (FLT3-ITD) cell line. In words: In vitro cell activity assay (MTT cell viability, 72 hours). It is filed as cell-based. Particulars: Homo sapiens, 72 hours at 37° C., 10,000 cells per well, read-out: IC50 against MV4-11. The gist of the method: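 Compound serial dilutions applied to MV4-11 (FLT3-ITD) cells, 10,000 per well, for 72 hours at 37° C. Viability by MTT, formazan dissolved in DMSO, absorbance at 600 nm; IC50 by nonlinear regression as concentration halving absorbance versus untreated cells.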

Experiment [2] relates to MV4-11 (FLT3-ITD) subcutaneous tumor xenograft. In words: MV4-11 subcutaneous tumor xenograft model. The following applies: for tumor complete regression of all mouse: oral gavage. It is filed as in vivo, BALB/c nude mice. As for the experimental part:
The procedures for establishing tumor xenografts and the dosing of B26 were carried out and accordance with ITRI institutional animal care and use committee in an IACUC. Female BALB/c nude mice (6 to 8 weeks old) were purchased from BioLASCO Co., Ltd. (Taipei, Taiwan). Female BALB/c nude mice were implanted subcutaneously in the right flank with 1×10^7 MV4-11 (FLT3-ITD) cells per mice. Treatments were initiated when tumors were 150 to 200 mm^3 in size. Mice were randomly assigned into cohorts (typically 4 mice per group for efficacy studies). B26 (50 and 150 mg/kg, bid.) and vehicle were given via oral gavage for 14 days from the 16th day after inoculation. Tumor volumes were assessed everyday and body weights were assessed two times weekly. Caliper measurements of tumors were converted into mean tumor volume using the formula: 0.5×[length×(width)^2].
Compound B26 of this invention is a novel and potent FLT3 inhibitor with promising anti-tumor and anti-leukemia activity.

T1 sequence (P35968 789-1356): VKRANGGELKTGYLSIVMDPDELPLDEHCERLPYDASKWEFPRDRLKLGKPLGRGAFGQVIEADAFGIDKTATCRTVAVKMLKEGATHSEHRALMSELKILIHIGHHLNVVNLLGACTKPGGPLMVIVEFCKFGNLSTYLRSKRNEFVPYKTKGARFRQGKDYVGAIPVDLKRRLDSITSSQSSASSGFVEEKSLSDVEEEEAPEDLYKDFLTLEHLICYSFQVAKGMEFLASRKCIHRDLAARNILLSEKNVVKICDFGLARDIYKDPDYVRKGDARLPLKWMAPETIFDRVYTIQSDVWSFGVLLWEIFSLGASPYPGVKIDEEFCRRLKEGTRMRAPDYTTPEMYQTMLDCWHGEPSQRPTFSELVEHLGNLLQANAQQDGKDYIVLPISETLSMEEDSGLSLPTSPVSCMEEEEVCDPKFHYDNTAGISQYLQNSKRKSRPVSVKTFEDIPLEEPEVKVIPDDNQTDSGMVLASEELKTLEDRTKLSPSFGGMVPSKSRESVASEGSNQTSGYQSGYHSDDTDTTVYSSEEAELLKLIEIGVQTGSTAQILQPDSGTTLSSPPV
SRC N1, sequence (P12931 1-542 isoform P12931-2): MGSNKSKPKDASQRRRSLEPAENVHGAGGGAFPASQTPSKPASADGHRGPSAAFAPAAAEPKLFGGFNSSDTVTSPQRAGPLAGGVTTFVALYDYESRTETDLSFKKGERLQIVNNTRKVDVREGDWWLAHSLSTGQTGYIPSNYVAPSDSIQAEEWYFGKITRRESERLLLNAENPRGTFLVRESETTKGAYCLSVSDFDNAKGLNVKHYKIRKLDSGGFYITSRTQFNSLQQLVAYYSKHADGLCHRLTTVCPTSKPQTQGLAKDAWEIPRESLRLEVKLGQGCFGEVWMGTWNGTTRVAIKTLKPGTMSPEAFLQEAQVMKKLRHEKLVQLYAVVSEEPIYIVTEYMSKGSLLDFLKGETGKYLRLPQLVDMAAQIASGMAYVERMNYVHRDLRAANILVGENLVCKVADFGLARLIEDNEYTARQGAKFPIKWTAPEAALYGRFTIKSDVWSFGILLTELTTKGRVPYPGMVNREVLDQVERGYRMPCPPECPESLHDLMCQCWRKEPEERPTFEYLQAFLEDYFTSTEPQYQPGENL
RET, sequence (P07949 29-1114): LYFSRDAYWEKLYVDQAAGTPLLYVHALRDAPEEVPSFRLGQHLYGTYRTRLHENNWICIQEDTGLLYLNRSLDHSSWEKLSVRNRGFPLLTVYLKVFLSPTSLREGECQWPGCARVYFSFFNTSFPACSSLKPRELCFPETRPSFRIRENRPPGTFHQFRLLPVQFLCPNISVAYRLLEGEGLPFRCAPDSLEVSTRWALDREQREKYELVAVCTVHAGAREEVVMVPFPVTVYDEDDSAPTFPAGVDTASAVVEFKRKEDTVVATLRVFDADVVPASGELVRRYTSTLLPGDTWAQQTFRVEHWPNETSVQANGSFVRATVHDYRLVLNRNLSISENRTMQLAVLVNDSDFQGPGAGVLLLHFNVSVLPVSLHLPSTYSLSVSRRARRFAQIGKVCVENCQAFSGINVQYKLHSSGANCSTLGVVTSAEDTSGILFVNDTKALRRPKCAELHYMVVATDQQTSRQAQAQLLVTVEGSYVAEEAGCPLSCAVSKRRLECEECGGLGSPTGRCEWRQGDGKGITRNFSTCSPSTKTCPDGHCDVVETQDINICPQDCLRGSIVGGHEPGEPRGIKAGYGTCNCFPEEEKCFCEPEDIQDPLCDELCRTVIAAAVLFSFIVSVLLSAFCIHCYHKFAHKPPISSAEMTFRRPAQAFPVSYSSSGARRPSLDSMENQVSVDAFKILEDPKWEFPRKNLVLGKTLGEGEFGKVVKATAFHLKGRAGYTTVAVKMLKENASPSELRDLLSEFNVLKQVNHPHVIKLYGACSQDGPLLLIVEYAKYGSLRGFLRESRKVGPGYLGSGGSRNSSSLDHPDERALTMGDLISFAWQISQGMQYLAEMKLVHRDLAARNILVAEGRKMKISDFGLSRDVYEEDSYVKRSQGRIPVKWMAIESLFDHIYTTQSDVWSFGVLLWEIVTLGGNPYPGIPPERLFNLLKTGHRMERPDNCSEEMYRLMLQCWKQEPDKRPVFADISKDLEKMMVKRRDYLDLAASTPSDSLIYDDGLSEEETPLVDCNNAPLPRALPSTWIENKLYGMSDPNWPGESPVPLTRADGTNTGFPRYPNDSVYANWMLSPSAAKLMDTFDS
FLT3, sequence (P36888 27-993): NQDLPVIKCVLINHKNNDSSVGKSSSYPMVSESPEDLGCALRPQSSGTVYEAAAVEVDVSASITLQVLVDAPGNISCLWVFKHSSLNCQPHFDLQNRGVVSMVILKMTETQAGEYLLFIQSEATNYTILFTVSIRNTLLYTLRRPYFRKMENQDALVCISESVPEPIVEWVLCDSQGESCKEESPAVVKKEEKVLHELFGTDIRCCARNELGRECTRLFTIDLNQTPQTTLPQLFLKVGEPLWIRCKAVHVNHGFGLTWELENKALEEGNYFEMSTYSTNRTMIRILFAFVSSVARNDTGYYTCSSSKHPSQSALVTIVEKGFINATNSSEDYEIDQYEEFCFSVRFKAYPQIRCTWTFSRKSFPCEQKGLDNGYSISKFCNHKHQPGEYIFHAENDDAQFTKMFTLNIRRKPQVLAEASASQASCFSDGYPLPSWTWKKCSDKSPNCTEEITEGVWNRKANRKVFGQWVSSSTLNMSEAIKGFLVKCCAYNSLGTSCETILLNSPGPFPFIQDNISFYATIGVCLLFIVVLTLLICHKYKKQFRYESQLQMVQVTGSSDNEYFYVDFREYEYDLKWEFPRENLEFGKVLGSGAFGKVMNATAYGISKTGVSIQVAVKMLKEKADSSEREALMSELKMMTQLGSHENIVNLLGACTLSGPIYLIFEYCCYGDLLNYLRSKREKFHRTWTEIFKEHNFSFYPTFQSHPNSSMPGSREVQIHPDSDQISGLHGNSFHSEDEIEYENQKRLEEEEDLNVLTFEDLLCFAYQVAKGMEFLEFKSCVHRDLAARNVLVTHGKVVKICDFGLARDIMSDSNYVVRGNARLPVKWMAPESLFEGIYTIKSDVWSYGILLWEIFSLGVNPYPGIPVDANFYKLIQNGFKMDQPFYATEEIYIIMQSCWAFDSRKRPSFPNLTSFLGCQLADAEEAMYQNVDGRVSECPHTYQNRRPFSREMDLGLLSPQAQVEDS
FGFR3 K650E, sequence (P22607 23-806 K650E): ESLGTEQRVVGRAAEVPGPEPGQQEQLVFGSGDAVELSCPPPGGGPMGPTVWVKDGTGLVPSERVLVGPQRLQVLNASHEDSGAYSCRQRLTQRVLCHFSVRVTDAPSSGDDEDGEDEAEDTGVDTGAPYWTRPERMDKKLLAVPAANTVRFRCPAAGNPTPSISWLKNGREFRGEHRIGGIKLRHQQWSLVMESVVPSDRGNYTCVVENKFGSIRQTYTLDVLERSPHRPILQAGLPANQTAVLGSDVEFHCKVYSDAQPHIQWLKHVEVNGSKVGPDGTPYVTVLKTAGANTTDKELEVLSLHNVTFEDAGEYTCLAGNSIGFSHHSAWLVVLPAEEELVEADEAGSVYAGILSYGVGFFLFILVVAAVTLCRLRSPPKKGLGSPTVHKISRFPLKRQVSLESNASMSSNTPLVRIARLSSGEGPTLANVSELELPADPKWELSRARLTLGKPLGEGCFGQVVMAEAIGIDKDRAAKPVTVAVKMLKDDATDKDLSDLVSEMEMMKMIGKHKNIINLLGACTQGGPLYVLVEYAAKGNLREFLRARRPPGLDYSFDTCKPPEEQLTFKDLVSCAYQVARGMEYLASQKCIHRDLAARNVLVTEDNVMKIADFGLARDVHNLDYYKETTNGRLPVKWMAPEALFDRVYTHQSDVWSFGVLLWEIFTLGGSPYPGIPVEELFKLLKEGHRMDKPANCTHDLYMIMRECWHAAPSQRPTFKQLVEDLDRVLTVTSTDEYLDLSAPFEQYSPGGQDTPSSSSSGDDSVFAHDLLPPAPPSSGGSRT
STK4 (MST1), sequence (Q13043 whole entry): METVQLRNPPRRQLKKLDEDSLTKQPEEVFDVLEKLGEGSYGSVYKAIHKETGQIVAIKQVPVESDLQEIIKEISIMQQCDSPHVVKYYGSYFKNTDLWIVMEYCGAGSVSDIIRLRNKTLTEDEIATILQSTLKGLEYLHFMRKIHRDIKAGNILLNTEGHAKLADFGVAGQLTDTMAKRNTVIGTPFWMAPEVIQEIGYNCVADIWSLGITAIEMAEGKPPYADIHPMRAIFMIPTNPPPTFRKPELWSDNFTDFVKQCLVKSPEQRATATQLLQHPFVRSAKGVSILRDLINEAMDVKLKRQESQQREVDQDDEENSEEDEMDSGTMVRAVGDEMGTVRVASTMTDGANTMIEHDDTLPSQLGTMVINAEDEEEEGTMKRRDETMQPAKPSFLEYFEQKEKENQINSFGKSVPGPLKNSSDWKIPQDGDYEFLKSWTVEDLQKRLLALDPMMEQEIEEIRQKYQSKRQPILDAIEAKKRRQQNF
RET V804L, sequence (P07949 29-1114 V804L): as the sequence (P07949 29-1114) above, with V776L counted along it
YES1, sequence (P07947 whole entry): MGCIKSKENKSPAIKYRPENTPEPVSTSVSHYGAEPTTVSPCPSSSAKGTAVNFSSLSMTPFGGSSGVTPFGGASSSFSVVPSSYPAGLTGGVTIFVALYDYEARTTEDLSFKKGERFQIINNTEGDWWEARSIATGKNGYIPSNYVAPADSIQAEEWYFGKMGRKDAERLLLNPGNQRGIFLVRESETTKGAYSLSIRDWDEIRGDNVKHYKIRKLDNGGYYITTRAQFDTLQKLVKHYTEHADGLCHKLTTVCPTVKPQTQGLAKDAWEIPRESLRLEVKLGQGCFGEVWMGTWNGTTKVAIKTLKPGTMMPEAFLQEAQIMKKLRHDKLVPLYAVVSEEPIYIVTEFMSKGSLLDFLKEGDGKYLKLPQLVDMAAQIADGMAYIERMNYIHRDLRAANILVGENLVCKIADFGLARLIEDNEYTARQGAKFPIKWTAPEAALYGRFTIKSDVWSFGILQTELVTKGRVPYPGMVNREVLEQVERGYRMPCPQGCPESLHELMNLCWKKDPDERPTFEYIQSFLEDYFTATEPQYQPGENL
FGFR3, sequence (P22607 23-806): as the sequence (P22607 23-806 K650E) above, with E628K counted along it

In general, IC50 refers to the midpoint of a concentration-inhibition curve. For `CN1CCN(c2ccc3[nH]c(-c4c5cccccc-5[nH]c4=O)nc3c2)CC1` [Compound B26], the inhibition at 0.1 µM came out at 71.3% on KDR kinase (0.1 uM compound, read-out: Kinases inhibitory activities against KDR kinase, 0.1 uM) and 45.6% against FLT-3 kinase (0.1 uM compound). The inhibition at 1 µM was determined as 96.9% on KDR kinase (1 uM compound, read-out: Kinases inhibitory activities against KDR kinase, 1 uM); 91.2% against FLT-3 kinase (1 uM compound); 51% at LYN B; 95% against FLT3; 81% against RET; 79% at RET Y791F. For the same compound, the inhibition at 1 µM turned out to be 52% against SRC N1; 62% against FGFR3; 59% against STK4 (MST1); 79% against RET V804L; 61% on KIT; 47% at FGFR3 K650E. Moreover, the figures for the inhibition at 1 µM against YES1 and at LYN A were 73% and 57%, respectively. For the same compound, in [1], the IC50 came to 21.1 nM. Also, the “tumor complete regression of all mouse” value was found to be 9 days in experiment [2] (50 mg/kg (bid)) and 7 days in experiment [2] (150 mg/kg (bid)). Also, in experiment [2] (oral, 50 or 150 mg/kg bid for 14 days), the antitumor effect entry was “potent and significant antitumor effect in a dose-dependent manner”.
